This passage reports GI50 and TGI results from PubChem BioAssay (NCI).

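These data come from cells grown in 96-well plates and exposed to compound for 48 hours at five concentrations. Abbreviation: GI50, concentration required for 50% inhibition of growth. TGI is the concentration that stops growth completely.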

Test in all cases: NCI anticancer screen, dose series, 48 h
For experiment [1], the system named is MDA-MB-231 breast.
Experiment [2] deals with NCI-H226 lung.
Experiment [3] concerns BT-549 breast.
Experiment [4] relates to OVCAR-4 ovarian.
Experiment [5] concerns M14 melanoma.
Experiment [6] has as its system SF-539 CNS.
The subject of experiment [7] is SNB-75 CNS.
In experiment [8] the test system is HCC-2998 colon.
Experiment [9] concerns RPMI-8226 leukemia.
The subject of experiment [10] is UACC-62 melanoma.

For `COc1ccc(-c2cc3c(nn2)-c2ccccc2C3=O)cc1`, the GI50 in [1] was 70 µM; in experiment [2], more than 100 µM; in experiment [3], more than 100 µM; in experiment [4], more than 100 µM; in experiment [5] it was more than 100 µM; in experiment [6], more than 100 µM. Further, the GI50 in experiment [7], in [8], in experiment [9] and in experiment [10] was more than 100 µM in each case. The TGI in [1], in [2], in experiment [3], in [4], in experiment [5] and in [6] was more than 100 µM each time. The TGI in [7], in [8], in experiment [9] and in experiment [10] was more than 100 µM each time.
Take `NCCCCn1c2c(c3ccccc3c1=O)C(=O)c1ccccc1-2`: the GI50 in [1] is 0.23 µM; in experiment [2] it was 0.107 µM; in [3] it was 0.754 µM; in experiment [4], 0.542 µM; in experiment [5], 0.417 µM; in experiment [6], 0.102 µM. The GI50 in [7] was 0.372 µM; in experiment [8] it was 0.484 µM; in experiment [9], 0.0887 µM; in experiment [10], 0.0467 µM. Also, the TGI came to 0.848 µM in experiment [1]; 0.458 µM in experiment [2]; 2.5 µM in [3]; 5.08 µM in [4]; 1.86 µM in experiment [5]; 0.462 µM in experiment [6]. The TGI was 2.37 µM in experiment [7], 1.92 µM in experiment [8], 0.932 µM in experiment [9] and 0.422 µM in experiment [10].
As for `C[C@]12CC[C@@H]3c4ccc(O)cc4CC[C@H]3[C@@H]1CC[C@@H]2NS(=O)(=O)c1ccc(C(F)(F)F)cc1`, the GI50 in [1] was 1.74 µM; in [2], 1.68 µM; in experiment [3], 1.7 µM; in experiment [4], 1.42 µM; in [5] it was 1.9 µM; in experiment [6] it was 1.6 µM. Besides, the GI50 in [7] is 1.67 µM; in experiment [8], 2.11 µM; in experiment [9], 2.51 µM; in experiment [10] it was 1.83 µM. The TGI in experiment [1] stood at 3.31 µM; in [2], 3.2 µM; in experiment [3], 3.2 µM; in experiment [4], 2.78 µM; in experiment [5], 3.6 µM; in experiment [6], 2.97 µM. Further, the TGI in experiment [7] amounted to 3.6 µM; in [8] it was 4.37 µM; in experiment [9] it was 6.79 µM; in experiment [10] it was 3.55 µM.
Turning to `Cc1cc(C)cc(Nc2cc(C)nc3nc(C(F)(F)F)nn23)c1`, the GI50 in experiment [1] was more than 100 µM; in [2] it was more than 100 µM; in experiment [3] it was 39.6 µM; in experiment [4], more than 100 µM; in experiment [5], more than 100 µM; in experiment [6] it was 38.9 µM. Further, the GI50 was 25.2 µM in experiment [7], more than 100 µM in experiment [8], more than 100 µM in experiment [9] and more than 100 µM in experiment [10]. Moreover, the TGI in experiment [1], in experiment [2], in [3], in experiment [4], in [5] and in experiment [6] was more than 100 µM in each case. Also, the TGI in experiment [7], in [8], in experiment [9] and in [10] was more than 100 µM in each case.
Turning to `O=C(C[C@@H](C(=O)NCc1cccc(C(F)(F)F)c1)N1C(=O)[C@@H](N2C(=O)OC[C@@H]2c2ccccc2)[C@H]1/C=C/c1ccccc1)NC1CCN(Cc2ccccc2)CC1`, the GI50 was 4.02 µM in experiment [1]; 48.2 µM in experiment [2]; 2.96 µM in experiment [3]; 1.77 µM in experiment [4]; 4.58 µM in [5]; 2.03 µM in experiment [6]. Also, the GI50 in [7] is 6.21 µM; in experiment [8] it was 6.2 µM; in [9], 2.22 µM; in experiment [10] it was 3.34 µM. For the same molecule, the TGI in [1] was 20 µM; in experiment [2], more than 100 µM; in [3], 8.81 µM; in experiment [4] it was 4.43 µM; in experiment [5] it was 20.4 µM; in experiment [6], 3.98 µM. The TGI in [7] is 23 µM; in experiment [8] it was 21.2 µM; in experiment [9], 5.31 µM; in [10], 13.8 µM.
For the molecule `CC[C@H](C)[C@H](NC(=O)[C@H]1CCCCN1C)C(=O)N(C)[C@H](CCc1nc(C(=O)N[C@@H](Cc2ccccc2)C[C@H](C)C(=O)OC)cs1)C(C)C`, the GI50 is 0.36 µM in experiment [1]; 1.07 µM in [2]; 0.177 µM in experiment [3]; 1.36 µM in [4]; 0.215 µM in [5]; 0.464 µM in [6]. Also, the GI50 is 0.276 µM in [7], 0.694 µM in [8], 0.0929 µM in experiment [9] and 0.0986 µM in experiment [10]. Besides, the TGI in [1] is 1.8 µM; in experiment [2], more than 12.4 µM; in [3], 2.48 µM; in [4], more than 25 µM; in experiment [6] it was 1.53 µM; in experiment [7] it was 7.65 µM. The figures for the TGI in experiment [8], in [9] and in experiment [10] were more than 13.4 µM, 8.17 µM and more than 25 µM, respectively.
As to `COc1ccc(C2CC(=O)c3c(O)c(OC)c(OC)c(OC)c3O2)c(O)c1` (centres undefined), the GI50 in experiment [1] was 0.997 µM; in experiment [2] it was 4.49 µM; in experiment [3], 0.221 µM; in experiment [4], 1.18 µM; in experiment [5], 0.0834 µM; in experiment [6], 0.14 µM. For the same molecule, the GI50 in experiment [7] is 0.0625 µM; in experiment [8], 0.761 µM; in [9], 0.372 µM; in experiment [10], 0.0566 µM. For the same molecule, the TGI in [1] is 31.7 µM; in experiment [2] it was 24.7 µM; in experiment [3], 20.5 µM; in experiment [4] it was 66.9 µM; in experiment [5], 15.4 µM; in experiment [6], 9.39 µM. The TGI is 0.858 µM in experiment [7], 27.2 µM in experiment [8], 18.4 µM in experiment [9] and 20.2 µM in [10].
